From patent US8586611B2 (priority 2005, dated 2013)
Like-named read-outs stand apart in the source and are kept apart here.

Legend:
Format in all cases: in vivo
[1] = tested on: Phytophthora infestans; experiment: whole plant or invertebrate; details: for Test D disease rating (100 = 100% disease control, 0 = no disease control): tomato late blight; for pest or weed control at 40 ppm: Phytophthora infestans, in Solanum lycopersicum, topical, 96 h, read-out: Test D disease rating (100 = 100% disease control, 0 = no disease control)
[2] = tested on: Erysiphe graminis f. sp. tritici; experiment: Test E: wheat powdery mildew, spray the day before inoculation (disease rating, 100 = 100% disease control); details: for pest or weed control at 40 ppm: Blumeria graminis, topical, 168 h, read-out: Test E disease rating (100 = 100% disease control, 0 = no disease control)
Description: (§1) The test compounds were first dissolved in acetone in an amount equal to 3% of the final volume and then suspended at the desired concentration (in ppm) in acetone and purified water (50/50 mix by volume) containing 250 ppm of the surfactant Trem® 014 (polyhydric alcohol esters). The resulting test suspensions were then used in tests A-E. Spraying a 200 ppm test suspension to the point of run-off on the test plants was the equivalent of a rate of 500 g/ha.
The test suspension was sprayed to the point of run-off on wheat seedlings. The following day the seedlings were inoculated with a spore dust of Erysiphe graminis f. sp. tritici, (the causal agent of wheat powdery mildew) and incubated in a growth chamber at 20° C. for 7 days, after which disease ratings were made.
(§2) Results for Tests A-F are given in Table A. In the table, a rating of 100 indicates 100% disease control and a rating of 0 indicates no disease control (relative to the controls). A dash (-) indicates no test results.

[3] = tested on: Plasmopara viticola; experiment: Test B: grape downy mildew, spray 24 h after inoculation (disease rating, 100 = 100% disease control); details: for pest or weed control at 40 ppm: Plasmopara viticola, 144 h, read-out: Test B disease rating (100 = 100% disease control, 0 = no disease control)
Description: as §1
Grape seedlings were inoculated with a spore suspension of Plasmopara viticola (the causal agent of grape downy mildew) and incubated in a saturated atmosphere at 20° C. for 24 h. After a short drying period, the test suspension was sprayed to the point of run-off on the grape seedlings and then moved to a growth chamber at 20° C. for 5 days, after which the test units were placed back into a saturated atmosphere at 20° C. for 24 h. Upon removal, disease ratings were made.
as §2

[4] = tested on: Phytophthora infestans; experiment: whole plant or invertebrate; details: for Test C disease rating (100 = 100% disease control, 0 = no disease control): tomato late blight; for pest or weed control at 40 ppm: Phytophthora infestans, in Solanum lycopersicum, 144 h, read-out: Test C disease rating (100 = 100% disease control, 0 = no disease control)
[5] = spray 17 h after inoculation, compounds without asterisk (not 40 or 10 ppm)
[6] = spray the day before inoculation, compounds without asterisk (not 40 or 10 ppm)
[7] = spray 24 h after inoculation, compounds without asterisk (not 40 or 10 ppm)
[8] = sprayed 17 h after inoculation, unmarked compounds (no asterisk, not 40 or 10 ppm)
[9] = sprayed the day before inoculation, 7 days at 20° C., unmarked compounds (no asterisk, not 40 or 10 ppm)
[10] = sprayed 24 h after inoculation, unmarked compounds (no asterisk, not 40 or 10 ppm)
[11] = sprayed the day before inoculation, unmarked compounds (no asterisk, not 40 or 10 ppm)
[12] = spray the day before inoculation, tested at 40 ppm
[13] = spray 24 h after inoculation, tested at 40 ppm
[14] = spray 17 h after inoculation, tested at 10 ppm
[15] = spray the day before inoculation, tested at 10 ppm
[16] = spray 24 h after inoculation, tested at 10 ppm

Row | SMILES | Test D disease rating (100 = 100% disease control, 0 = no disease control) [1, 5] | Test E disease rating (100 = 100% disease control, 0 = no disease control) [2, 6] | Test B disease rating (100 = 100% disease control, 0 = no disease control) [3, 7] | Test C disease rating (100 = 100% disease control, 0 = no disease control) [4, 6] | further results
1 | COC(=O)Cc1ccccc1CC(=O)N1CCC(c2nc(C(=O)N(C)[C@H](C)c3ccccc3)cs2)CC1 [compound 90] | 9% | 0% | 17% | 26% | 
2 | C[C@@H](NC(=O)c1csc(C2CCN(C(=O)Cc3cccc(Br)c3)CC2)n1)c1ccc(F)cc1 [compound 271] |  |  |  |  | Test D disease rating (100 = 100% disease control, 0 = no disease control) [1, 8]: 0; Test E disease rating (100 = 100% disease control, 0 = no disease control) [2, 9]: 0; Test B disease rating (100 = 100% disease control, 0 = no disease control) [3, 10]: 7; Test C disease rating (100 = 100% disease control, 0 = no disease control) [4, 11]: 67
3 | CCC1C=Cc2ccccc2C1N(C)C(=O)c1csc(C2CCN(C(=O)Cn3nc(C(F)(F)F)cc3C)CC2)n1 (stereo not shown) [compound 228] | 99% | 0% | 88% | 100% | 
4 | Cc1ccc(C)c(CC(=O)N2CCC(c3nc(C(=O)N(C)[C@H]4CCCc5ccccc54)cs3)CC2)c1 [compound 133] | 79% | 0% | 77% | 53% | 
5 | CN(Cc1ccccn1)C(=O)c1csc(C2CCN(C(=O)Cc3cccc(C(F)(F)F)c3)CC2)n1 [compound 168] | 0% | 0% | 15% | 8% | 
6 | Cc1cnn(CC(=O)N2CCC(c3nc(C(=O)N(C)[C@H](C)c4ccccc4)cs3)CC2)c1 [compound 73] | 9% | 0% | 2% | 75% | 
7 | Cc1cc(C(F)(F)F)nn1CC(=O)N1CCC(c2cc(C(=O)N(C)[C@@H]3CCCc4ccccc43)no2)CC1 [compound 202] | 99% | 0% | 97% | 100% | 
8 | Cc1cc(C(F)(F)F)nn1CC(=O)N1CC=C(c2nc(C(=O)N(C)[C@@H]3CCCc4ccccc43)cs2)CC1 [Compound 218, N-methyl-2-[1,2,3,6-tetrahydro-1-[[5-methyl-3-(trifluoromethyl)-1H-pyrazol-1-yl]acetyl]-4-pyridinyl]-N-[(1R)-1,2,3,4-tetrahydro-1-naphthalenyl]-4-thiazolecarboxamide] |  |  |  |  | pest or weed control at 40 ppm [1]: 99%; pest or weed control at 40 ppm [2, 12]: 0%; pest or weed control at 40 ppm [3, 13]: 91%; pest or weed control at 40 ppm [4]: 100%
9 | Cc1cc(C(F)(F)F)nn1CC(=O)N1CCCN(c2nc(C(=O)N(C)[C@@H]3CCCc4ccccc43)cs2)CC1 [compound 241] | 68% | 47% | 17% | 99% | 
10 | Cc1ccc(C)c(CC(=O)N2CCC(c3nc(C(=O)N(C)C4COc5ccccc54)cs3)CC2)c1 (stereo not shown) [compound 138] | 37% | 44% | 91% | 100% | 
11 | Cc1cc(C(F)(F)F)nn1CC(=O)N1CCC(c2nc(C(=O)N(C)C3CCC(C)(C)c4ccccc43)cs2)CC1 (stereo not shown) [compound 199] |  |  |  |  | Test D disease rating (100 = 100% disease control, 0 = no disease control) ([1]; spray 17 h after inoculation, tested at 40 ppm): 99%; Test E disease rating (100 = 100% disease control, 0 = no disease control) [2, 12]: 0%; Test B disease rating (100 = 100% disease control, 0 = no disease control) [3, 13]: 99%; Test C disease rating (100 = 100% disease control, 0 = no disease control) [4, 12]: 100%
12 | C[C@@H](NC(=O)c1csc(C2CCN(C(=O)Cc3cccc(Br)c3)CC2)n1)C1CCCCC1 [compound 272] |  |  |  |  | Test D disease rating (100 = 100% disease control, 0 = no disease control) [1, 8]: 0; Test E disease rating (100 = 100% disease control, 0 = no disease control) [2, 9]: 0; Test B disease rating (100 = 100% disease control, 0 = no disease control) [3, 10]: 14; Test C disease rating (100 = 100% disease control, 0 = no disease control) [4, 11]: 50
13 | Cc1cc(C(F)(F)F)nn1CC(=O)N1CCC(c2nc(C(=O)N(C)C3CSCc4ccccc43)cs2)CC1 (stereo not shown) [compound 185] |  |  |  |  | Test D disease rating (100 = 100% disease control, 0 = no disease control) [1, 14]: 98%; Test E disease rating (100 = 100% disease control, 0 = no disease control) [2, 15]: 0%; Test B disease rating (100 = 100% disease control, 0 = no disease control) [3, 16]: 99%; Test C disease rating (100 = 100% disease control, 0 = no disease control) [4, 15]: 100%
14 | COc1ccccc1CC(=O)N1CCN(c2nc(C(=O)N(C)[C@H](C)c3ccccc3)co2)CC1 [compound 53] | 89% | 0% | 20% | 100% | 
15 | CCOc1ccccc1CC(=O)N1CCC(c2nc(C(=O)N(C)[C@H](C)c3ccccc3)cs2)CC1 [compound 78] | 46% | 0% | 100% | 78% | 
16 | Cc1cc(C(F)(F)F)nn1CC(=O)N1CCC(c2nc(C(=O)N(C)C3c4ccccc4CC3O)cs2)CC1 (stereo not shown) [compound 207] | 99% | 0% | 36% | 99% | 
17 | Cc1cc(C(F)(F)F)nn1CC(=O)N1CCC(c2nc(C(=O)N(C)C(C)c3ccccc3F)cs2)CC1 (stereo not shown) [compound 250] |  |  |  |  | Test D disease rating (100 = 100% disease control, 0 = no disease control) [1, 14]: 71%; Test E disease rating (100 = 100% disease control, 0 = no disease control) [2, 15]: 0%; Test B disease rating (100 = 100% disease control, 0 = no disease control) [3, 16]: 97%; Test C disease rating (100 = 100% disease control, 0 = no disease control) [4, 15]: 97%
18 | Cc1cc(C(F)(F)F)nn1CC(=O)N1CCC(c2nc(C(=O)N3CCC(C)CC3)cs2)CC1 [compound 308] |  |  |  |  | Test D disease rating (100 = 100% disease control, 0 = no disease control) [1, 8]: 93; Test E disease rating (100 = 100% disease control, 0 = no disease control) [2, 9]: 0; Test B disease rating (100 = 100% disease control, 0 = no disease control) [3, 10]: 98; Test C disease rating (100 = 100% disease control, 0 = no disease control) [4, 11]: 100
19 | Cc1cc(C(F)(F)F)nn1CC(=O)N1CCN(c2nc(C(=O)N(C)[C@@H]3CCCc4ccccc43)cs2)CC1 [Compound 220, N-methyl-2-[4-[[5-methyl-3-(trifluoromethyl)-1H-pyrazol-1-yl]acetyl]-1-piperazinyl]-N-[(1R)-1,2,3,4-tetrahydro-1-naphthalenyl]-4-thiazolecarboxamide] |  |  |  |  | pest or weed control at 40 ppm [1]: 98%; pest or weed control at 40 ppm [2, 12]: 0%; pest or weed control at 40 ppm [3, 13]: 95%; pest or weed control at 40 ppm [4]: 100%
